This is an account of results in ChEMBL document CHEMBL5357053, “Neopetrotaurines A-C, Isoquinoline Alkaloids with an Unprecedented Taurine Bridge from the Sponge Neopetrosia sp” (J Nat Prod, 2024).

Common to all, as to format: functional, cell-based
Assay [1] in a line: Antiproliferative activity against human SCMC cells assessed as inhibition of cell viability measured after 72 hrs by IncuCyte live-cell imaging assay.
Assay [2] concerns SCMC. Nature of the assay: Downregulation of FOXO1 target gene set in human SCMC cells measured after 6 hrs by GSEA method.
Assay [3] relates to Rh4. The assay can be described thus: Downregulation of FOXO1 target gene set in human Rh4 cells measured after 6 hrs by GSEA method. The following applies: dose 1.9 µM.
The nature of assay [4]: Antiproliferative activity against human Rh4 cells assessed as inhibition of cell viability measured after 72 hrs by IncuCyte live-cell imaging assay. The following applies: Rh4, 72 h.

Structures are written as SMILES. Active and inactive are the calls of the source. No cut-off for these calls is given here.

With `COC1=C(C)C(=O)c2c(cn(C)c(=O)c2NCCS(=O)(=O)Oc2c(C)c(OC)c(O)c3c[n+](C)c(C(=O)O)cc23)C1=O`, the IC50 is 7.4 µM in assay [1] and 2.3 µM in assay [4]. Besides, the result in assay [2] and in assay [3] was inactive.

Regarding `COC(=O)c1cc2c(OS(=O)(=O)CCNc3c4c(cn(C)c3=O)C(=O)C(OC)=C(C)C4=O)c(C)c(OC)c(O)c2c[n+]1C`, the IC50 in assay [1] was determined as 11 µM; in assay [4], 3.3 µM. For the same molecule, the outcome in assay [2] and in assay [3] was Active.

As for `COC1=C(C)C(=O)c2c(cn(C)c(=O)c2NCCS(=O)(=O)Oc2c(C)c(OC)c(O)c3c[n+](C)ccc23)C1=O`, the concentration for half-maximal inhibition (IC50) in assay [1] came to 7.3 µM; in assay [4], 1.9 µM. Further, the result in assay [2] and in assay [3] was inactive.

The IC50 is the concentration at which inhibition is half-maximal.
